The test system of data set [1] is HCT 116 human colon cancer cells. Nature of the data set: MTT cell viability assay, HCT 116. The format is cell-based. The following applies: MTT.
Description: (§2) HIEC6 human healthy intestinal cells and HCT 116 and HT-29 human colon cancer cells were supplied by ATCC. Colon cancer cells were cultured in Dulbecco’s modified Eagle’s medium (DMEM) for HCT 116 and HT-29 supplemented with fetal bovine serum (10%). HIEC6 cells were cultured in Opti-MEM supplemented with fetal bovine serum (4%), HEPES (20 mM), glutamine (10 mM), and epidermal growth factor (10 ng/mL). Cells were maintained at 37 °C in a humidified atmosphere containing 5% CO2. Cells were seeded at 30% confluence in DMEM for HCT 116 and in Opti-MEM for HIEC6; after cell adhesion, HIEC6 cells were cultured in DMEM for 24h before being treated. All cells were treated with the indicated components at concentrations of 0.25–50 μM and incubated for 1–5 days as specified.
(§3) The MTT assay relies on a colorimetric reaction based on the capacity of living cells to reduce MTT to formazan and change the color to purple, which is easily measured by colorimetry. This assay estimates the cellular viability after the indicated treatments. Cells were treated with MTT (1:10 in culture medium) and incubated at 37 °C for 3 h for HCT 116 and HT-29 or 6 h for HIEC6. After removal of the medium, the formazan was resuspended in DMSO, transferred to p96 plates, and analyzed by a SpectraFLUOR (Tecan) at 542 nm. In all cases, viability was measured in duplicates of each point in three independent experiments.
Data set [2] relates to HIEC6 human healthy intestinal cells. Kind of data set: MTT cell viability assay, HIEC6. It counts as cell-based. Particulars: MTT; for Reduction in viability of healthy cells (HIEC6): 5 μM.
Description: as §2, §3
The test system of data set [3] is p53 protein levels in HCT 116 cells. Kind of data set: Western blot of p53 levels. The format is cell-based, human. The following applies: HCT 116, 48 h, increasing concentrations. Here is the method:
Confocal imaging of the DNA damage response was followed by immunofluorescence of histone gH2Ax foci at double-strand DNA breaks (DSB) (Figure 4A). […] However, none of the Pt(IV) prodrugs were able to increase p53 levels even at concentrations higher than those needed to reduce cell viability.
Cells were washed with iced PBS before extract preparation and scraped in whole-cell protein lysis buffer (62.5 mM Tris-HCl pH 6.8, 2% sodium dodecyl sulfate (SDS), 0.01% bromophenol blue sodium salt, and 10% glycerol). Whole-cell protein lysates were incubated 15 min at 95 °C and directly used as whole cell extract or frozen at −80 °C. Proteins from lysed cells or immunoprecipitates were denatured and loaded on sodium dodecyl sulfate polyacrylamide gels and then transferred to polyvinylidene difluoride membranes (Bio-Rad). After blocking with 5% (w/v) milk, the membrane was incubated with the corresponding primary antibodies, anti-p53 sc-126 (Santa Cruz Biotechnology) or anti-tubulin (Sigma-Aldrich), and secondary antibodies (Bio-Rad). The specific bands were analyzed using the ChemiDoc Imaging Systems (Bio-Rad).

Another data set concerns HCT 116 cells. Kind of data set: Trypan blue exclusion test. The format is cell-based, human. Particulars: HCT 116, 0.5 μM, 2 days. Here is the method:
HCT 116 cells were harvested by trypsinization followed by centrifugation at 500g for 5 min. The cell pellet was resuspended in 1 mL of PBS. Equal volumes of trypan blue (Bio-Rad cat. no. 1450021) 0.4% and cell suspension were mixed and incubated for 1–3 min at room temperature, and cell counting was carried out using a TC20 Automated Cell Counter (Bio-Rad cat. no. 1450102). The percentage of viable cells was calculated by dividing the number of viable cells per milliliter by the number total of cells per milliliter) × 100. Representative images were acquired using a Zeis light microscope with a 20× objective.

Data set [4] can be described thus: 195Pt NMR reduction kinetics with ascorbic acid. The format is physicochemical. The following applies: AsA 4:1 excess, DMSO/D2O (4:1), 37 °C, 2, 6, 24 h. Here is the method: (§1) AsA presents an intracellular concentration of 1 mM, whereas the GSH concentration is 2 mM.[38] This reactivity was monitored by ^195Pt NMR at different times. Thus, by analyzing the different regions where the signals of Pt(II)/Pt(IV) species appear, it is possible to identify and assign the different compounds formed during the reaction. In most cases, the regions where the Pt(II) and Pt(IV) signals appear are separated by more than 3000 ppm.[33]
We first studied the reduction of the complexes against AsA, monitoring the reaction in both the Pt(IV) and Pt(II) region at 2, 6, and 24 h. In both cases, we used a mixture of DMSO/D2O (4:1) to reach the solubilization of the complexes and the AsA. In the Pt(IV)-biSi-1 reduction experiment, during the first hour, only the signal at 1210 ppm appeared in the Pt(IV) region (Figure S13A), which corresponds to the original complex, and no signal was detected in the Pt(II) region.
Each solution was then slowly added to 100 μL of a solution of the corresponding reducing agent (AsA or GSH in an excess of 4:1 against each complex) in D2O at 37 °C. After that, 100 μL of DMSO-d6 was added carefully to each mixture, reaching a final concentration of […] (DMSO-d6/D2O). All of these mixtures were performed using a thermoshaker. Each sample was monitored by ^195Pt NMR at 2, 6, and 24 h.

A short description of data set [5]: 195Pt NMR reduction kinetics with glutathione. It counts as physicochemical. The following applies: GSH 4:1 excess, DMSO/D2O (4:1), 37 °C, 2, 6, 24 h. Here is the method: as §1
The reactivity of both complexes toward the reducing agent GSH was also studied using the DMSO/D2O (4:1) mixture. […] In the Pt(II) region, two signals appeared after 24 h at −2728 and −3405 ppm (Figure 2G). The first value is consistent with the cis-PtN2SX fraction,[41],[42] meaning that this species, once reduced to its Pt(II) homologue, coordinates with GSH by displacing a chloride ligand. The second signal corresponds to another Pt(II) moiety with more than one ligand containing sulfur atoms. […]
Each solution was then slowly added to 100 μL of a solution of the corresponding reducing agent (AsA or GSH in an excess of 4:1 against each complex) in D2O at 37 °C. […] Each sample was monitored by ^195Pt NMR at 2, 6, and 24 h.

Data set [6] is described as follows: Stability in DMEM by 195Pt NMR. It counts as physicochemical. Particulars: DMSO-d6/DMEM 1:4, 37 °C, 0, 24, 48, 120 h. The source says:
We then decided to evaluate the stability of the two Pt(IV) complexes in the medium (DMEM) used to carry out the in vitro experiments, monitoring their kinetics by ^195Pt NMR at different times to evaluate the possible species formed over time. DMEM is supplemented with proteins and other molecules essential for cell growth (Experimental Section). Thus, similar to the reduction assays, we analyzed the Pt(II)/Pt(IV) region where the expected species appear. […] Both Pt(IV)/Pt(II) signals disappeared after 48 h, most likely again because of the binding of the complex to the proteins.
To each solution was then slowly and carefully added 300 μL of DMEM to avoid the precipitation of the complex, reaching a final concentration of 1:4 (DMSO-d6/DMEM). All these mixtures were performed using a thermoshaker. Each sample was monitored by ^195Pt NMR at 0, 24, 48, and 120 h.

[7] abbreviates: 2 days, experiment with intermediates, Figure 3A.
Setting [8] is: 2 days, (final complexes, Figure 3B).

This is an account of results in paper PMC11056991, “Promising Anticancer Prodrugs Based on Pt(IV) Complexes with Bis-organosilane Ligands in Axial Positions” (Journal of Medicinal Chemistry, 2024).

For `N.N.[Cl][Pt][Cl]` [cisplatin, Cisplatin, reference compound], the “Cells survived, HCT 116” value in data set [1] (5 μM, 5 days chronic treatment) is “more than 50%”. In addition, the “Reduction in viability of healthy cells (HIEC6)” value in data set [2] (2 days) worked out at 60%. In addition, the p53 levels result in data set [3] is “increased p53 levels (at all concentrations)”. Also, in the data set on HCT 116 cells, the “Reduction of viability by trypan blue staining” value was found to be 20%.

For the compound `N.N.[Cl-].[Cl-].[OH-].[OH-].[Pt+4]` [oxoplatin, cis-Dichloro(diamine)-trans-dihydroxoplatinum(IV), reference compound], in data set [1] (setting [7]), the “Cell viability, HCT 116 5uM 2 days” value amounted to 82.9 ± 6.0%. Further, the “Cell viability, HIEC6 5uM 2 days” value in data set [2] (setting [7]) is on record as 65.3 ± 10.9%.

For `CCO[Si](CCCNC(=O)[O][Pt]([NH2])([NH2])([Cl])([Cl])[O]C(=O)NCCC[Si](OCC)(OCC)OCC)(OCC)OCC` [Pt(IV)-biSi-1, cis-Dichloro(diamine)-trans-[3-(triethoxysilyl)propylcarbamate]platinum(IV)], in data set [1] (0.5 uM, 2 days), the “Cell viability, HCT 116 0.5uM 2 days” value was determined as 70.1 ± 6.0%. Moreover, the “Reduction of viability (cytotoxicity) of HCT 116 tumor cells” value in data set [1] (0.5 μM, 2 days) is listed as “very similar to those of cisplatin”. Besides, the “Cell viability, HCT 116 0.5uM 5 days” value in data set [1] (0.5 uM, 5 days) stood at 87.0 ± 5.0%. For the same compound, the “Reduction in viability of cancer cells (HCT 116)” value in data set [1] (5 μM, 2 days) stood at 20%. In addition, the “Cell viability, HCT 116 5uM 2 days” value in data set [1] (setting [8]) is listed as 78.8 ± 3.1%. Moreover, the IC50 in data set [1] (48 h, supplementary CSV, read-out: IC50 (uM) HCT 116) amounted to 8.9 ± 0.6 µM; in data set [2] (48 h, supplementary CSV, read-out: IC50 (uM) HIEC6) it was 5.1 ± 0.7 µM. For the same compound, the “Reduction of the Pt(IV) complex by AsA (Pt(IV) signal in 195Pt NMR)” value in data set [4] is “after 24 h, this signal underwent a marked decrease in intensity”. Further, the “Cell viability, HIEC6 0.5uM 2 days” value in data set [2] (0.5 uM, 2 days) stood at 99.5 ± 1.8%. Moreover, the “Cell viability, HIEC6 0.5uM 5 days” value in data set [2] (0.5 uM, 5 days) turned out to be 105.3 ± 3.6%. In addition, the “Reduction in viability of healthy cells (HIEC6)” value in data set [2] (2 days) is on record as 60%. The “Cell viability, HIEC6 5uM 2 days” value in data set [2] (setting [8]) was 40.0 ± 1.8%. For the same compound, in data set [5], the “Reduction of the Pt(IV) complex by GSH (Pt(IV) signal in 195Pt NMR)” value is on record as “at 24 h, there is still a fraction of free complex without undergoing reduction”. In addition, the “Stability in DMEM (Pt(IV) signal in 195Pt NMR)” value in data set [6] is “decreases with time up to 48 h, where a small fraction of the initial complex remains intact”. For the same compound, in the data set on HCT 116 cells, the “Reduction of viability by trypan blue staining” value is 20%.

Take “cis-Dichloro(diisopropylamine)-trans-dihydroxoplatinum(IV) [iproplatin, reference compound]”: the “Cell viability, HCT 116 5uM 2 days” value in data set [1] (setting [7]) is 73.6 ± 5.4%. Moreover, the “Cell viability, HIEC6 5uM 2 days” value in data set [2] (setting [7]) is reported as 69.8 ± 6.3%.
